pIC50: −log10 of the molar value. The source made the active and inactive calls. The rule behind the calls is not given here.
Assays:
[1] = Cytotoxicity against human HepG2.2.15 cells assessed as cell death after 9 days by MTS assay; type: cell-based, HepG2 2.2.15
Hepatitis B virus [2] = assay: Antiviral activity against hepatitis B viral in human HepG2.2.15 cells assessed as surface antigen HBsAg secretion after 9 days by ELISA; type: functional, organism-based; conditions: HepG2 2.2.15, 216 h
Hepatitis B virus [3] = assay: Antiviral activity against hepatitis B viral in human HepG2.2.15 cells assessed as HBeAg secretion after 9 days by ELISA; type: functional, organism-based; conditions: HepG2 2.2.15, 216 h
[4] = Selectivity index, ratio of CC50 for human HepG2.2.15 cells to IC50 for decrease in hepatitis B viral surface antigen HBsAg secretion in human HepG2.2.15 cells; type: functional
[5] = Selectivity index, ratio of CC50 for human HepG2.2.15 cells to IC50 for decrease in hepatitis B viral HBeAg secretion in human HepG2.2.15 cells; type: functional
Hepatitis B virus [6] = assay: Antiviral activity against hepatitis B viral in human HepG2.2.15 cells assessed as viral DNA replication after 9 days by real-time PCR analysis (reference value: 6.12 +/- 1.46 AU); type: functional, HepG2 2.2.15
Hepatitis B virus [7] = assay: Antiviral activity against hepatitis B viral in human HepG2.2.15 cells assessed as viral surface antigen HBsAg level after 9 days by ELISA (reference value: 721 +/- 32 pg/ml); type: functional, HepG2 2.2.15
Hepatitis B virus [8] = assay: Antiviral activity against hepatitis B viral in human HepG2.2.15 cells assessed as viral HBcAg level after 9 days by ELISA (reference value: 14.16 +/- 1.92 ng/ml); type: functional, HepG2 2.2.15
[9] = Antiproliferative activity against human HepG2.2.15 cells assessed as cell growth at 20 uM after 0 to 24 hrs by MTT assay; type: cell-based; conditions: hepg2 2.2.15, 20 µM
HepG2 2.2.15 [10] = assay: Induction of autophagy in HBV-infected human HepG2.2.15 cells assessed as decrease in NTCP level after 12 to 24 hrs by Western blot analysis; type: functional
HepG2 2.2.15 [11] = assay: Induction of autophagy in HBV-infected human HepG2.2.15 cells assessed as decrease in APOA1 level after 12 to 24 hrs by Western blot analysis; type: functional
HepG2 2.2.15 [12] = assay: Induction of autophagy in HBV-infected human HepG2.2.15 cells assessed as decrease in HBx level after 12 to 24 hrs by Western blot analysis; type: functional
[13] = target: Sodium/bile acid cotransporter NTCP (Homo sapiens) (UniProt Q14973); assay: Induction of human NTCP receptor inhibition-mediated autophagy in HBV-infected human HepG2.2.15 cells assessed as MDC positive cells at 20 uM after 12 hrs by […] (reference value: 0.60%); design: scale not given: the % may be the effect or the level left
[14] = target: Sodium/bile acid cotransporter NTCP (Homo sapiens) (UniProt Q14973); assay: Induction of human NTCP receptor inhibition-mediated autophagy in HBV-infected human HepG2.2.15 cells assessed as MDC positive cells at 20 uM after 24 hrs by […] (reference value: 0.60%); design: scale not given: the % may be the effect or the level left

Sodium/bile acid cotransporter NTCP (Homo sapiens), sequence (Q14973 whole entry, looked up): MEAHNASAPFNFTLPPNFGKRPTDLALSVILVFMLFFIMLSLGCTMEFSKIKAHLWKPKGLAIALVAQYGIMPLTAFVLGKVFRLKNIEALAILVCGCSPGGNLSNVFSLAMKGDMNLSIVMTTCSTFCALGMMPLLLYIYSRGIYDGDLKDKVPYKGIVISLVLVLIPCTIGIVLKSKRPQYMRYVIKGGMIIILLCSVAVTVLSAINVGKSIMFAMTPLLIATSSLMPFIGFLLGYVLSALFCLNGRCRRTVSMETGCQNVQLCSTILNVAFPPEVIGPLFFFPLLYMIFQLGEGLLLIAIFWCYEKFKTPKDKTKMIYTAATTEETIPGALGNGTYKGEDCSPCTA

Structure (SMILES)	pIC50 (Hepatitis B virus [2])	pIC50 (Hepatitis B virus [3])	Activity [13] [%]	Activity [14] [%]	CC50 at 216 h [1] [µM]	Selectivity Index [4]	Selectivity Index [5]	Activity (Hepatitis B virus [6]) [a.u.]	Activity (Hepatitis B virus [7]) [pg/mL]	Activity (Hepatitis B virus [8]) [pg/mL]	Activity [9]	inhibition (HepG2 2.2.15 [10])	inhibition (HepG2 2.2.15 [11])	inhibition (HepG2 2.2.15 [12])
COC(=O)Nc1nc2cc(C(=O)c3ccco3)ccc2[nH]1	< 3.00	< 3.00	–	–	> 1000	–	–	–	–	–	–	–	–	–
COC(=O)Nc1nc2cc(C(=O)c3ccc(F)cc3)ccc2[nH]1 [FLUBENDAZOLE]	–	–	–	–	–	2.5	4.75	3.76	361	10100	–	–	–	–
COC(=O)Nc1nc2cc(C(=O)c3ccccn3)ccc2[nH]1	< 3.00	< 3.00	–	–	> 1000	–	–	–	–	–	–	–	–	–
COC(=O)Nc1nc2ccc(C(=O)c3ccccc3)cc2[nH]1 [MEBENDAZOLE]	< 3.00	< 3.00	–	–	> 1000	–	–	–	–	–	–	–	–	–
Nc1ncnc2c1ncn2CCOCP(=O)(O)O [ADEFOVIR]	3.59	3.67	–	–	490	1.9	2.27	4.12	571	12100	–	–	–	–

The next lines start with results.

pIC50 (Hepatitis B virus [2])	pIC50 (Hepatitis B virus [3])	Activity [13] [%]	Activity [14] [%]	Structure (SMILES)	CC50 at 216 h [1] [µM]	Selectivity Index [4]	Selectivity Index [5]	Activity (Hepatitis B virus [6]) [a.u.]	Activity (Hepatitis B virus [7]) [pg/mL]	Activity (Hepatitis B virus [8]) [pg/mL]	Activity [9]	inhibition (HepG2 2.2.15 [10])	inhibition (HepG2 2.2.15 [11])	inhibition (HepG2 2.2.15 [12])
4.39	3.78	–	–	COC(=O)Nc1nc2nc(C(=O)c3cccc(OC)c3)ccc2[nH]1	78.1	1.89	0.47	–	–	–	–	–	–	–
3.61	3.40	–	–	COC(=O)Nc1nc2cc(C(=O)c3cccc(F)c3)ccc2[nH]1	21.2	0.09	0.05	–	–	–	–	–	–	–
4.75	4.60	9.3	31.1	COC(=O)Nc1nc2nc(C(=O)c3ccc(O)c(OC)c3)ccc2[nH]1	197	11	7.86	2.46	258	8140	Toxic	Active	Active	Active
3.72	3.51	–	–	COC(=O)Nc1nc2cc(C(=O)c3ccc(OC)c(OC)c3)ccc2[nH]1	48.5	0.25	0.15	–	–	–	–	–	–	–
4.43	4.11	–	–	COC(=O)Nc1nc2nc(C(=O)c3ccc(OC)c(OC)c3)ccc2[nH]1	102	2.74	1.3	–	–	–	–	–	–	–
4.01	3.32	–	–	COC(=O)Nc1nc2cc(C(=O)c3cccc(OC)c3)ccc2[nH]1	117	1.19	0.24	–	–	–	–	–	–	–
4.53	3.67	–	–	COC(=O)Nc1nc2cc(C(=O)c3ccc(O)c(OC)c3)ccc2[nH]1	105	3.55	0.49	–	–	–	–	–	–	–
